Test results from PMC3923314 (Biomacromolecules, 2013).

Tests used:
[1] = after injection of free DOX; cited from earlier work
normal rat striatum = test: Convection-enhanced delivery; type: in vivo; details: CED, 20 μl, DOX 0.2 mg/ml, Sprague Dawley rats, a week after infusion

Q: What does the source list for `COc1cccc2c1C(=O)c1c(O)c3c(c(O)c1C2=O)C[C@@](O)(C(=O)CO)C[C@@H]3O[C@H]1C[C@H](N)[C@H](O)[C@H](C)O1` [free DOX, doxorubicin]?
A: clearance time from blood circulation [1]: tens of minutes; toxicity to brain tissue (H&E staining) (normal rat striatum): significant tissue damage
